Experimental data taken from patent US20240287138A1, “CYCLIC PEPTIDES FOR INHIBITING TNF RECEPTOR 1 ACTIVITY” (Merck Sharp & Dohme LLC, priority 2023, published 2024).
Numbered stars: 1 amine (or outer) side, 2 acyl side, 3 side chain; on linkers, the order of the positions; unused ones are H or OH. Bridge positions count the residues as written; N and C are the ends. Square brackets hold non-standard residues; d marks the D form. Peptide text beside a SMILES is read from it. * marks the point of attachment. Ala(2-carboxypyrimidin-5-yl) = N[C@@H](Cc1cnc(C(=O)O)nc1)C(=O)O; Trp(βS-Me,7-OMe) = COc1cccc2c([C@H](C)[C@H](N)C(=O)O)c[nH]c12; X49 = C[N+](C)(C)CC(=O)N[C@H]1C[C@H](C(=O)[*:2])N([*:1])C1; Ala(1-bicyclo(1.1.1)pentyl) = N[C@@H](CC12CC(C1)C2)C(=O)O; X54 = O=C(O)c1c(F)cc(C[C@H](N[*:1])C(=O)[*:2])cc1F; Trp(7-CN) = N#Cc1cccc2c(C[C@H](N)C(=O)O)c[nH]c12; Trp(7-Cl) = N[C@@H](Cc1c[nH]c2c(Cl)cccc12)C(=O)O; Phe(4-CONH2) = NC(=O)c1ccc(C[C@H](N)C(=O)O)cc1; Phe(4-COOH) = N[C@@H](Cc1ccc(C(=O)O)cc1)C(=O)O; Trp(7-aza) = N[C@@H](Cc1c[nH]c2ncccc12)C(=O)O; Pip(5R-OH) = O=C(O)[C@@H]1CC[C@@H](O)CN1; X1 = O=C([C@@H]1CC[C@H](N[*:1])C1)[*:2]; X40 = CCN([C@H](C)C(=O)[*:2])[*:1]; Pip(4-aza) = O=C(O)[C@@H]1CNCCN1; 4Pal = N[C@@H](Cc1ccncc1)C(=O)O; NMeE = CN[C@@H](CCC(=O)O)C(=O)O; dHyp = O=C(O)[C@H]1C[C@H](O)CN1; αMeS = C[C@](N)(CO)C(=O)O; Nle = CCCC[C@H](N)C(=O)O; Me2NCH2CH2 = CN(C)CC*; Sar = CNCC(=O)O

Columns and labels:
[1] = target: T1, human soluble TNFR1 (sTNFR1) (Homo sapiens, UniProt P19438); assay: Human sTNFR1-peptide displacement assay (LanthaScreen Eu TR-FRET binding assay)
T1 construct: made in house; host or cells: Sf21 (baculovirus)
T1 sequence (P19438 with tags, fused parts or gaps): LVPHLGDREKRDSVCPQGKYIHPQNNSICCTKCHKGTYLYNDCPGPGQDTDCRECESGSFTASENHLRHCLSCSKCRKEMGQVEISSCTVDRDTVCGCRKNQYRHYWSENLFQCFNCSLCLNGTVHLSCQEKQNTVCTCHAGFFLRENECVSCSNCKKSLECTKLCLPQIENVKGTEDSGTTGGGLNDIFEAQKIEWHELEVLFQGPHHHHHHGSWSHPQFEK
In short: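 Readout is the 665/615 nm TR-FRET ratio (Eu anti-His donor, streptavidin-Alexa647 acceptor), normalized to DMSO and saturating displacer, fit by Morrison-based five-parameter logistic for Kd^app. His-tagged sTNFR1 (1-211) prebound to 100 nM biotinylated peptide SEQ ID NO.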

[2] = target: T2, TNFα-induced NF-κB signal transduction pathway (TNFR1 signaling) in THP-1 cells (Homo sapiens, UniProt P19438); assay: THP-1 Lucia NF-κB reporter cell assay, inhibition of TNFα-induced NF-κB signaling; assay type: cell-based; settings: THP-1 NF-κB Lucia reporter cells, 10 ng/mL TNFα, 16-18 h, secreted luciferase; read-out: THP-1 IC50
T2 sequence (P19438 30-455): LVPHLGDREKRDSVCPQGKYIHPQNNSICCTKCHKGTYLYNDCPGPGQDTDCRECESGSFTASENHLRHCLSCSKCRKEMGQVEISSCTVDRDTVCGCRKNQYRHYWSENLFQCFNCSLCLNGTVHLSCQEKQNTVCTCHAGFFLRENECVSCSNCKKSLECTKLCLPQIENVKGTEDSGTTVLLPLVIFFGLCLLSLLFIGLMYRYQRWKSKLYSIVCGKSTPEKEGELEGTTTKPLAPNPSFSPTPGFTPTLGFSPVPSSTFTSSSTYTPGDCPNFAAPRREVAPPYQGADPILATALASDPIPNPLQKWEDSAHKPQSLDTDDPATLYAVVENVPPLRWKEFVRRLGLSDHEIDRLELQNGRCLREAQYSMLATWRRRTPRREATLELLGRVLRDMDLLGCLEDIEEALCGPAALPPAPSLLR
In short: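 Read-out: secreted Lucia luciferase luminescence (QUANTI-Luc) from supernatant after 16-18 h, 37 °C, 10 ng/mL rhTNFα. Peptide pretreatment 1 h at 37 °C; 20,000 cells/well, selection antibiotics omitted. IC50 via 4-parameter logistic model against min/max controls.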

| Compound | IC50 [1] [nM] | Kd [1] [nM] | IC50 [2] [nM] |
| --- | --- | --- | --- |
| CCCC[C@@H]1NC(=O)CSC[C@@H](C(N)=O)NC(=O)[C@H]([C@@H](C)c2c[nH]c3c(OC)cccc23)NC(=O)CN(C)C(=O)[C@H](Cc2ccc(O)cc2)NC(=O)[C@H](Cc2ccc(C(N)=O)cc2)NC(=O)[C@](C)(CO)NC(=O)[C@H](Cc2c[nH]c3c(Cl)cccc23)NC(=O)[C@H](Cc2ccc(C(=O)O)cc2)NC(=O)[C@H](CC(N)=O)NC(=O)[C@H]2C[C@H](O)CN2C(=O)[C@H](Cc2c[nH]c3ccccc23)NC(=O)[C@@H]2CC[C@@H](O)CN2C(=O)[C@H](Cc2ccncc2)NC1=O [SEQ ID NO. 185] ({CH2CO}-[Nle][4Pal][Pip(5R-OH)]W[dHyp]N[Phe(4-COOH)][Trp(7-Cl)][αMeS][Phe(4-CONH2)]Y[Sar][Trp(βS-Me,7-OMe)]C-NH2; thioether N-14) | 0.2 | 0.16 | 0.9 |
| CCCC[C@@H]1NC(=O)CSC[C@@H](C(N)=O)NC(=O)[C@H]([C@@H](C)c2c[nH]c3c(OC)cccc23)NC(=O)CN(C)C(=O)[C@H](Cc2ccc(O)cc2)NC(=O)[C@H](Cc2ccc(C(N)=O)cc2)NC(=O)[C@](C)(CO)NC(=O)[C@H](Cc2c[nH]c3c(Cl)cccc23)NC(=O)[C@H](Cc2ccncc2)NC(=O)[C@H](CC(N)=O)NC(=O)[C@@H](C)N(CC)C(=O)[C@H](Cc2c[nH]c3ccccc23)NC(=O)[C@@H]2CC[C@@H](O)CN2C(=O)[C@H](Cc2ccncc2)NC1=O [SEQ ID NO. 186] ({CH2CO}-[Nle][4Pal][Pip(5R-OH)]W[X40]N[4Pal][Trp(7-Cl)][αMeS][Phe(4-CONH2)]Y[Sar][Trp(βS-Me,7-OMe)]C-NH2; thioether N-14) | 0.5 | 0.42 | 1.9 |
| COc1cccc2c([C@H](C)[C@@H]3NC(=O)CN(C)C(=O)[C@H](Cc4ccc(O)cc4)NC(=O)[C@H](Cc4ccc(C(=O)O)cc4)NC(=O)[C@](C)(CO)NC(=O)[C@H](Cc4c[nH]c5c(Cl)cccc45)NC(=O)[C@H](Cc4ccncc4)NC(=O)[C@H](CC(N)=O)NC(=O)[C@H](CCC(=O)O)N(C)C(=O)[C@H](Cc4c[nH]c5ccccc45)NC(=O)[C@@H]4CNCCN4C(=O)[C@H](Cc4ccncc4)NC(=O)[C@H](CC45CC(C4)C5)NC(=O)[C@@H]4CC[C@@H](C4)NC3=O)c[nH]c12 [SEQ ID NO. 190] (cyclo([4Pal][Trp(7-Cl)][αMeS][Phe(4-COOH)]Y[Sar][Trp(βS-Me,7-OMe)][X1][Ala(1-bicyclo(1.1.1)pentyl)][4Pal][Pip(4-aza)]W[NMeE]N)) |  | 0.33 | 1.6 |
| CCCC[C@@H]1NC(=O)[C@@H]2CC[C@@H](C2)NC(=O)[C@H]([C@@H](C)c2c[nH]c3c(OC)cccc23)NC(=O)CN(C)C(=O)[C@H](Cc2cnc(C(=O)O)nc2)NC(=O)[C@H](Cc2ccc(C(N)=O)cc2)NC(=O)[C@](C)(CO)NC(=O)[C@H](Cc2c[nH]c3c(Cl)cccc23)NC(=O)[C@H](Cc2ccc(C(=O)O)cc2)NC(=O)[C@H](CC(N)=O)NC(=O)[C@H]2C[C@H](O)CN2C(=O)[C@H](Cc2c[nH]c3ccccc23)NC(=O)[C@@H]2CC[C@@H](O)CN2C(=O)[C@H](Cc2ccncc2)NC1=O [SEQ ID NO. 191] (cyclo([4Pal][Pip(5R-OH)]W[dHyp]N[Phe(4-COOH)][Trp(7-Cl)][αMeS][Phe(4-CONH2)][Ala(2-carboxypyrimidin-5-yl)][Sar][Trp(βS-Me,7-OMe)][X1][Nle])) |  | 0.18 | 1.6 |
| CCCC[C@@H]1NC(=O)[C@@H]2CC[C@@H](C2)NC(=O)[C@H]([C@@H](C)c2c[nH]c3c(OC)cccc23)NC(=O)CN(C)C(=O)[C@H](Cc2cc(F)c(C(=O)O)c(F)c2)NC(=O)[C@H](Cc2ccc(C(N)=O)cc2)NC(=O)[C@](C)(CO)NC(=O)[C@H](Cc2c[nH]c3c(C#N)cccc23)NC(=O)[C@H](Cc2cc(F)c(C(=O)O)c(F)c2)NC(=O)[C@H](CC(N)=O)NC(=O)[C@H]2C[C@H](NC(=O)C[N+](C)(C)C)CN2C(=O)[C@H](Cc2c[nH]c3ncccc23)NC(=O)[C@@H]2CC[C@@H](O)CN2C(=O)[C@H](Cc2ccncc2)NC1=O [SEQ ID NO. 193] (cyclo([4Pal][Pip(5R-OH)][Trp(7-aza)][X49]N[X54][Trp(7-CN)][αMeS][Phe(4-CONH2)][X54][Sar][Trp(βS-Me,7-OMe)][X1][Nle])) |  | 0.15 | 1 |
| CCCC[C@@H]1NC(=O)[C@@H]2CC[C@@H](C2)NC(=O)[C@H]([C@@H](C)c2c[nH]c3c(OC)cccc23)NC(=O)CN(C)C(=O)[C@H](Cc2ccc(OCCN(C)C)cc2)NC(=O)[C@H](Cc2ccc(C(=O)O)cc2)NC(=O)[C@](C)(CO)NC(=O)[C@H](Cc2c[nH]c3c(Cl)cccc23)NC(=O)[C@H](Cc2ccncc2)NC(=O)[C@H](CC(N)=O)NC(=O)[C@H](CCC(=O)O)N(C)C(=O)[C@H](Cc2c[nH]c3ccccc23)NC(=O)[C@@H]2CNCCN2C(=O)[C@H](Cc2ccncc2)NC1=O [SEQ ID NO. 195] (cyclo([4Pal][Trp(7-Cl)][αMeS][Phe(4-COOH)]Y(Me2NCH2CH2)[Sar][Trp(βS-Me,7-OMe)][X1][Nle][4Pal][Pip(4-aza)]W[NMeE]N)) |  | 0.28 | 1.6 |
